From patent US10676446B2, “Bicyclic quinazolinone derivatives” (Hoffmann-La Roche Inc., priority 2015, dated 2020) come the findings set out here.

The structures appear in SMILES notation.

This test has as its target human ATX (autotaxin, ENPP2), His-tagged (Homo sapiens (Human), UniProt Q13822). The test is described as follows: Human ATX enzyme inhibition assay (fluorescence quenching, MR121 substrate). In kind it is biochemical. As to conditions: 30 nM ATX, 1 μM MR121 substrate, 30° C., pH 8.0. The procedure, abridged: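 His-tagged human ATX (30 nM final) preincubated 15 min at 30 °C with serially diluted compound in Tris-HCl pH 8.0 buffer with Ca2+, Mg2+ and 0.01% Triton X-100. MR121-labelled fluorescence-quenched substrate then added (1 μM final) for a further 15 min at 30 °C; fluorescence read-out.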
In turn, `CC(=O)N1CCC(O)(c2ccc3ncn(CC(=O)N(C)Cc4ccc(C#N)c(Cl)c4)c(=O)c3c2)CC1` [Example 185, 2-[6-(1-Acetyl-4-hydroxypiperidin-4-yl)-4-oxoquinazolin-3-yl]-N-[(3-chloro-4-cyanophenyl)methyl]-N-methylacetamide] yielded an IC50 of 125 nM.
For `CN(Cc1ccc(C#N)c(Cl)c1)C(=O)Cn1cnc2ccc(C3CCN(C(=O)CO[N+](=O)[O-])CC3)cc2c1=O` [Example 186, [2-[4-[3-[2-[(3-Chloro-4-cyanophenyl)methyl-methylamino]-2-oxoethyl]-4-oxoquinazolin-6-yl]piperidin-1-yl]-2-oxoethyl]nitrate] the value was 4 nM; for `CC(=O)N1CCC(c2cc(F)c3ncn(CC(=O)N(C)Cc4ccc(C#N)c(Cl)c4)c(=O)c3c2)CC1` [Example 187, 2-[6-(1-Acetylpiperidin-4-yl)-8-fluoro-4-oxoquinazolin-3-yl]-N-[(3-chloro-4-cyanophenyl)methyl]-N-methylacetamide], 1 nM.
`COCCC(=O)N1CCC(c2cc(F)c3ncn(CC(=O)N(C)Cc4ccc(C#N)c(Cl)c4)c(=O)c3c2)CC1` [Example 188, N-[(3-Chloro-4-cyanophenyl)methyl]-2-[8-fluoro-6-[1-(3-methoxypropanoyl)piperidin-4-yl]-4-oxoquinazolin-3-yl]-N-methylacetamide] registered an IC50 of 1 nM.
For `CC(=O)N1CCC(c2cc3c(=O)n(CC(=O)N(C)Cc4ccc(C#N)c(Cl)c4)cnc3cn2)CC1` [Example 189, 2-[6-(1-Acetylpiperidin-4-yl)-4-oxopyrido[3,4-d]pyrimidin-3-yl]-N-[(3-chloro-4-cyanophenyl)methyl]-N-methylacetamide], the IC50 was found to be 1 nM.
Regarding `COCCC(=O)N1CCC(c2cc3c(=O)n(CC(=O)N(C)Cc4ccc(C#N)c(Cl)c4)cnc3cn2)CC1` [Example 190, N-[(3-Chloro-4-cyanophenyl)methyl]-2-[6-[1-(3-methoxypropanoyl)piperidin-4-yl]-4-oxopyrido[3,4-d]pyrimidin-3-yl]-N-methylacetamide], the IC50 was 1 nM.

As usually defined, the IC50 is the concentration at which inhibition is half-maximal. A lower IC50 goes with higher potency.
